According to patent publication US6592545B1, “Particle delivery” (PowderJect Research Limited, priority 1994, dated 2003):
Counter-ions that a name gives are not always drawn.

What was measured:
[1] = test system: oral mucosa; assay: Visual assessment of oral mucosa delivery sites for damage or irritation after needleless syringe delivery; assay type: in vivo, human; details: single 3 mg dose, particles 38-53 μm, 14 subjects, 24-48 hours after delivery
Method: A randomized, double-blind, negatively controlled study was carried out in normal, healthy human subjects as follows. Initially, a single 3 mg dose of lignocaine HCL particles sized between 38 and 53 μm was delivered from a needleless syringe constructed in accordance with the invention. The lignocaine was delivered to the oral mucosa adjacent to the number 12 and 22 lateral incisors in 14 trial subjects. The delivery sites were then visually assessed for evidence of damage or irritation to the mucosal tissues.

[2] = test system: oral mucosa; assay: Local anaesthesia: pain response to probing oral mucosa with back of 27G dental needle, visual analogue scale; assay type: in vivo, human; details: 3.0 mg particles via needleless syringe; probe of treated area 1 minute post delivery; untreated 55.6%, placebo 30.6%
[3] = in vivo
Method: In a second study, a single 3.0 mg dose of lignocaine HCL particles (as above) was delivered using a needleless syringe, and a single 0.2 mL dose of 2% lignocaine HCL was delivered via needle-syringe injection. Pain associated with the administration of each treatment was scored in all 14 subjects using a 100 mm visual analogue scale immediately after each treatment, wherein 100% indicates a painful treatment, and 0% indicates a pain-free treatment. The needleless syringe employed in the study was operated using 40 bar helium driving gas to expel anaesthetic particles from a flexible, eversible dome-shaped membrane comprised of a 400 μm, 6 mm polyurethane film.

[4] = oral administration, degraded by the liver; cited from earlier work
[5] = Serum testosterone pharmacokinetics after subcutaneous or OralJect transmucosal delivery (radioimmunoassay); assay type: in vivo, New Zealand White rabbit; details: for Cmax: mean
Method: Testosterone (Sigma Chemicals) was milled and sieved into a particle size range (approximately 50-100 μm) suitable for transmucosal delivery from a needleless syringe using standard stainless steel mesh sieves. Female New Zealand White rabbit subjects weighing between 2.2-2.8 kg were used and allowed food and water ad libitum. The rabbits (n=8) were randomly assigned to one of two treatment groups. The first treatment group received testosterone (2.0 mg dose) as a suspension in 35% polyvinylpyrrolidone C-30 in water (6 mg/g testosterone concentration) via subcutaneous injection. The second treatment group received testosterone (2.0 mg dose of testosterone particles ranging from 53-75 μm) as two 1.0 mg transmucosal administrations from an OralJect™ needleless syringe device abutted against the cheek mucosa.
Whole blood (1.0 ml) was taken at times 0, 0.5, 1, 2, 4, 6, 8, 12, 24 and 48 hours, the serum aspirated and assayed for testosterone by radioimmunoassay (DPC). The OralJect™ device is a prototype device of the present invention that is actuated by helium at 40 bar.

SMILES	tissue reaction at delivery sites [1]	mean pain response score to probe [2] [%]	pain associated with administration, mean visual analogue score [3] [%]	first pass degradation [4] [%]	Cmax ([5]; OralJect transmucosal (cheek mucosa), 2 x 1.0 mg particles 53-75 μm, rabbit serum) [nmol/I]	second minor peak of serum testosterone, time post administration ([5]; OralJect transmucosal, possible depot effect) [h]	bioavailability ([5]; female, New Zealand White, rabbit, serum, 2 mg, OralJect transmucosal, 2.0 mg, rabbit, read-out: % BA (% bioavailability)) [%]	Tmax ([5]; female, New Zealand White, rabbit, serum, OralJect transmucosal, 2.0 mg, all animals) [min]	Cmax ([5]; subcutaneous injection, 2.0 mg suspension in 35% polyvinylpyrrolidone C-30, rabbit serum) [nmol/I]	Cmax range ([5]; subcutaneous injection, 2.0 mg, rabbit serum)
CCN(CC)CC(=O)Nc1c(C)cccc1C [lignocaine HCL]	no evidence of any tissue reaction	15.0	49.9	–	–	–	–	–	–	–
C[C@]12CC[C@H]3[C@@H](CCC4=CC(=O)CC[C@@]43C)[C@@H]1CC[C@@H]2O [testosterone, Testosterone]	–	–	–	98	25.5 ± 3.5	12	~48.3	30	34.8 ± 6.9	26.9 − 55.2 nmol/I
